Entries after “also recorded” stand apart in the source; their conditions may differ. Where two headings read alike, the source gives them in different places.
Key:
[1] = tested on: N-methyl-D-aspartate receptor (NMDAR); conditions: cited from earlier work
[2] = cited from earlier work
[3] = Diffusion cell tests with porcine oral mucosa (Franz cells) (Example 8); type: in vitro ADME; conditions: 2.5% DendroSol; 0.025 mg/100 μL LSD
Experimental: FIG. 3 Diffusion cell tests with psilocin, LSD and MDMA in Franz cells in the absence and presence of carrier. The tests were carried out with porcine oral mucosa as described in Example 8 below. Each carrier formulation was used on four diffusion cells each. In the graphic, mean values are shown.
Diffusion cell tests were carried out with porcine oral mucosa. Porcine mucosa was freshly prepared and kept in physiological buffer at pH 7.2 at temperatures between 2-8 °C for less than 36 h prior the experiment. The prepared oral mucosa thickness was 0.4-0.65 mm. Concentrations were determined by HPLC-UV. Four diffusion cells with a surface area of 0.54 cm^2 and an acceptor volume of 12.7 mL were used in the experiments for each formulation. Drug-carrier solutions wherein the solvent was water were prepared by either dissolving the drug in ethanol in a glass beaker, letting the ethanol evaporate under high vacuum and then dissolving the drug in the buffered nanocarrier solution. Alternatively, the drug was mixed with the carrier in ethanol in final conditions, the resulting mixture was dried under high vacuum in case of psilocin and afterwards re-dissolved in purified HPLC water.
Each carrier formulation was used on four diffusion cells each. In the graphic, the results were averaged.
Acceptor medium was physiological NaCl solution which was phosphate-buffered to pH 7.2. […]

[4] = tested on: 5-HT2A receptor; conditions: cited from earlier work
[5] = intravenous administration of psilocybin; US2022370413A1; cited from earlier work
[6] = taken by mouth; cited from earlier work
[7] = Exemplary stability experiment, visual grading of psilocin samples with carriers or stabilizers (Example 6); type: physicochemical; design: key to stability, visually graded, under Vacuum at 25 °C / stability, visually graded, at room temperature exposed to air / stability, visually graded, at 50 °C, exposed to air: 0: dark precipitate visible = not stable; 1: discolored = moderately stabilized; 2: slightly discolored = stabilized; 3: transparent = highly stabilized
Source text: Psilocin was mixed with two different batches of CMS carrier (DendroSol®), two different batches of dendritic succinate (hPG-succ, one of which had 25% substitution with succinate, the other one 100%) and two different batches of dendritic succinate functionalized with nalbuphine as anchor molecule (liked via an ester), as well as dendritic succinate deprotonized with NaOH. For comparison, we also mixed psilocin with known stabilizers oxalic acid and ascorbic acid (vitamin C), as well as mixtures of vitamin C with the carriers named above. One sample of pure psilocin solution was kept as a reference.
All samples contained 5 mg/L of psilocin and 2.5 wt % of carrier (for carriers mixed with oxalic acid or vitamin C, the total concentration of additives was 2.5 wt %). In the second part of the experiment, the carrier concentration was varied between 0.6 and 3 wt %.

[8] = cited from earlier work; remark: listed apart in the source

## CNC1(c2ccccc2Cl)CCCCC1=O (racemic) [(R,S)-ketamine]
[1]
  NMDAR antagonism / interaction: antagonist of the NMDAR
[2]; patients with treatment-resistant post-traumatic stress disorder
  effect in treatment-resistant PTSD: beneficial effects
[2]; treatment-resistant MDD or BD, single or repeated intravenous infusions, 0.5 mg/kg
  antidepressant effect: robust antidepressant and antisuicidal effects

## CCN(CC)C(=O)[C@@H]1C=C2c3cccc4[nH]cc(c34)C[C@H]2N(C)C1 [LSD]
[3]
  effect of carrier on diffusion rate, water vs ethanol as solvent: the effect was greater when water was used as solvent than with use of ethanol as solvent
[4]; listed as (+) lysergide
  5-HT2A receptor agonism: partial agonist with a high affinity to this receptor
[4]; listed as lysergide
  5-HT2A receptor agonism: 5-HT2A receptor agonists

## CNC1(c2ccccc2Cl)CCCCC1=O (stereo not shown) [ketamine]
[1]
  NMDAR antagonism / interaction: antagonist of the N-methyl-D-aspartate receptor

## CN[C@]1(c2ccccc2Cl)CCCCC1=O [(S)-ketamine]
[1]
  NMDAR antagonism / interaction: stronger

## CN(C)CCc1c[nH]c2cccc(OP(=O)(O)O)c12 [psilocybin]
[5]
  variation of maximum plasma concentrations of psilocin between individuals: can vary over three-fold between individuals

## CNC(C)Cc1ccc2c(c1)OCO2 (stereo not shown) [MDMA, 3,4-methylenedioxymethamphetamine]
[6]
  duration of effects: 3 to 6 h
  onset of effects: 30 to 45 min

## COc1cc(CCN)cc(OC)c1OC [mescaline]
[4]
  5-HT2A receptor agonism: 5-HT2A receptor agonists

## CN[C@@]1(c2ccccc2Cl)CCCCC1=O [(R)-ketamine]
[2]; (R)-ketamine relative to (S)-ketamine
  antidepressant potency and duration, relative: more long-lasting; also recorded: greater potency and longer-lasting antidepressive effects

## CN(C)CCc1c[nH]c2cccc(O)c12 [Psilocin]
[7]; 50 °C, exposed to air, all samples contain psilocin (5 mg/L) and 2.5 wt % carrier/additive
  stability, visually graded, at 50 °C, exposed to air: 0
[7]; conclusion in words
  stability of psilocin, conclusion: could be significantly improved by adding the right carriers
[7]; order of effectiveness, lowest first
  effectiveness of carriers for stabilizing psilocin (ranking): pure psilocin<CMS carrier (DendroSol®)<oxalic acid<dendritic succinate (25%)<dendritic succinate (100%)=functionalized dendritic succinate=dendritic succinate deprotonized with NaOH
[7]; room temperature, exposed to air, all samples contain psilocin (5 mg/L) and 2.5 wt % carrier/additive
  stability, visually graded, at room temperature exposed to air: 0
[7]; under vacuum at 25 °C, all samples contain psilocin (5 mg/L) and 2.5 wt % carrier/additive
  stability, visually graded, under Vacuum at 25 °C: 3
[4]
  5-HT2A receptor agonism: 5-HT2A receptor agonists
[8]; blood or urine
  stability in biological samples: unstable and is degraded fast by both non-enzymatic and enzymatic processes
[8]; exposed to air and aqueous
  stability in ambient and aqueous environments: poor stability due to photodegradation and oxidation
[8]; psilocin sample protected from light, 14 days
  peak loss over 14 days: 50%
